Experiment [1] concerns the target NAD-dependent protein deacylase sirtuin-5, mitochondrial (Homo sapiens, UniProt Q9NXA8). The experiment is described as follows: sirtuin-5 deacylation blockers, concentration series – biochemical, fluorescence imaging, cherry-pick, set 5, dose response (AID 720591).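 Also: desuccinylation of succinyl peptide AMC substrate read as fluorescence after trypsin release; potency of inhibitors that lower fluorescence and may act on trypsin instead.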
The nature of experiment [2]: OVCAR-3 cell viability loss – plate reader, dry powder samples, PAX8 inhibitor project, dose response (AID 743044). It is filed as functional, cell-based.
For another experiment, the target named is Paired box protein Pax-8 (Homo sapiens, UniProt Q06710). The experiment is described as follows: PAX8 transcriptional activity inhibition in RMG-I – RMG-I cells, luciferase, cherry-pick, dose response (AID 687027).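 Also: luciferase reporter driven by Pax8 target thyroperoxidase promoter measured by SteadyGlo luminescence.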 It is filed as functional, cell-based.
The nature of experiment [3]: COV362 cell viability loss – plate reader, dry powder, SA12, cytotoxicity control for PAX8 inhibitor project, dose response (AID 743144). It is filed as functional, cell-based.
Experiment [4] is described as follows: inhibitors acting on PAX2 in cells – cell-based, plate reader, dry powder samples, selectivity assay for PAX8 inhibitor project, dose response (AID 743048).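 Also: HEK293 cells carrying a WT1 promoter luciferase reporter driven by expressed Pax2; potency is for inhibition of Pax2 driven reporter signal.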 It is filed as functional.
Experiment [5] in a line: PAX5 cellular inhibition readout – cell-based, plate reader, dry powder samples, selectivity assay for PAX8 inhibitor project, dose response (AID 743047).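 Also: HEK293 cells carrying a Pax5 driven CD19 promoter luciferase reporter; potency of inhibitors that lower reporter luminescence.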 It is filed as functional.
The nature of experiment [6]: COV434 cell viability loss – plate reader, dry powder, SA7, cytotoxicity control for PAX8 inhibitor project, dose response (AID 743145). It is filed as functional, cell-based.
A short description of experiment [7]: PAX8-dependent cell viability loss – plate reader, dry powder, dose response (AID 743049). It is filed as functional, cell-based.
A short description of experiment [8]: OVCAR4 cell viability loss – plate reader, dry powder, SA11, cytotoxicity control for PAX8 inhibitor project, dose response (AID 743150). It is filed as functional, cell-based. To be noted: OVCAR-4.
Experiment [9] can be described thus: OV-90 cell viability loss – plate reader, dry powder, SA8, PAX8 inhibitor project, dose response (AID 743149). It is filed as functional, cell-based.
Experiment [10] in a line: viability loss of HPDE-C7K cells – cell-based, fluorescence, HTS, primary screen (AID 431). It is filed as functional. To be noted: Homo sapiens.
Experiment [11] is described as follows: viability of PTEN-deleted HCT116 cells – cell-based, HCT116 PTEN knockout, dose response (AID 1047).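 Also: HCT116 colon tumor cells with PTEN knocked out; cells exposed to compound for 60 hours before readout; potency for loss of cell viability measured by luminescence.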 It is filed as functional.
In experiment [12] the target is T1, Sentrin-specific protease 8 (Homo sapiens, UniProt Q96LD8).
T1 sequence (Q96LD8 whole entry): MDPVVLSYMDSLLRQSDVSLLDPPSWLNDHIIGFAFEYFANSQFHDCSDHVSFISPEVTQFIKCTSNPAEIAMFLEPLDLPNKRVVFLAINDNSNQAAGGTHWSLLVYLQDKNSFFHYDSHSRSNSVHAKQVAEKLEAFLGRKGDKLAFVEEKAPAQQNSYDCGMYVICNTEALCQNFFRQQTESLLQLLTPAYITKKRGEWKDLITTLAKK
It is filed as functional.

A short description of experiment [13]: cells. It is filed as functional.
Another experiment concerns H4. The experiment is described as follows: Luminescence Cell-Based Dose Response HTS to Identify Activators of 5'UTR Stem-Loop Driven Prion Protein mRNA Translation in H4 Neuroglioblastoma Cells. [Related pubchem assays: 1829 (Project Summary), 1814 (Primary HTS)]. It is filed as functional. Particulars: Homo sapiens.
For experiment [14], the target named is T2, Fibrinogen beta chain (Homo sapiens, UniProt P02675). Put plainly: Fluorescence polarization-based biochemical high throughput dose response assay to identify inhibitors that disrupt the binding of a cyclic peptide (Tn7) to the fibrin proteolytic product D-Dimer and fragment E complex [DD(E )]. On the technique in general: In fluorescence polarisation assays a small probe gives low polarisation when free and higher when bound to something large.

The nature of experiment [15]: Luminescence Cell-Based Dose Confirmation HTS to Identify Activators of 5'UTR Stem-Loop Driven Alpha-Synuclein mRNA Translation in H4 Neuroglioblastoma Cells. [Related pubchem assays: 1829 (Project Summary), 1814 (Primary HTS)]. It is filed as functional.
Experiment [16] deals with T2, Fibrinogen beta chain. Put plainly: Fluorescence polarization-based biochemical high throughput dose response assay to identify inhibitors that disrupt the binding of a cyclic peptide (Tn6) to the fibrin proteolytic product D-Dimer and fragment E complex [DD(E )].
Experiment [17] addresses T1, Sentrin-specific protease 8. It is filed as functional. This is another data set of the same source.
Experiment [18] is described as follows: viability of HCT116 lacking mutant beta-catenin – cell-based, human colon tumor, dose response (AID 1045).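 Also: HCT116 colon tumor cells with beta catenin knocked out; cells exposed to compound for 60 hours.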 It is filed as functional.
Experiment [19] is described as follows: HPDE-C7 pancreatic duct cell viability loss – fluorescence, HTS (AID 430). It is filed as functional, cell-based. Particulars: Homo sapiens.
Experiment [20] can be described thus: Vero E6 cell cytotoxicity, dose response, cytotoxicity control for non-replicating M. tuberculosis project, secondary assay (AID 492998). It is filed as functional, VeroE6. To be noted: Vero C1008.
A further experiment deals with Nonstructural protein 1 (Influenza A virus, UniProt Q194T2). It is filed as functional, Influenza A virus (A/California/07/2009(H1N1)).
Experiment [21] can be described thus: THP-1 cell cytotoxicity, dose response, cytotoxicity control for non-replicating M. tuberculosis project (AID 489025). It is filed as functional.
Experiment [22] in a line: Late-stage results from the probe development effort to identify antagonists of arginine vasopressin receptor 1a (AVPR1a): fluorescence-based cell-based dose response AVPR1a inhibition assay. It is filed as functional.
A short description of experiment [23]: Late-stage results from the probe development effort to identify antagonists of arginine vasopressin receptor 1a (AVPR1a): fluorescence-based cell-based dose response OXTR inhibition counterscreen assay. It is filed as functional. On the technique in general: A counterscreen serves to expose hits that act by an unwanted route or on another target.
The next experiment has as its target Vasopressin V2 receptor (Homo sapiens, UniProt P30518). The experiment is described as follows: Late-stage results from the probe development effort to identify antagonists of arginine vasopressin receptor 1a (AVPR1a): fluorescence-based cell-based dose response AVPR2 inhibition counterscreen assay. It is filed as functional.
For a further experiment, the target named is Vasopressin V1b receptor (Homo sapiens, UniProt P47901). Put plainly: Late-stage results from the probe development effort to identify antagonists of arginine vasopressin receptor 1a (AVPR1a): fluorescence-based cell-based dose response AVPR1b inhibition counterscreen assay. It is filed as functional.
Experiment [24] is described as follows: dual-tagged ARNT PAS-B bead signal quenchers – biochemical, dry powder, artefact control for ARNT/TACC3 disruptor project, dose response (AID 720564).
Experiment [25] can be described thus: ATP-based viability loss in HepG2 cells – cell-based, CellTiter-Glo luminescence, dry powder, set 3, cytotoxicity control, dose response (AID 720594). It is filed as functional. For orientation: In ATP-based viability assays light output follows the ATP content of the culture.
A short description of experiment [26]: Luminescence-based cell-based high throughput dose response assay to identify activators of the DAF-12 from the parasite S. stercoralis (ssDAF-12). It is filed as functional.
Experiment [27] has as its target T3, Oxysterols receptor LXR-beta (Homo sapiens, UniProt P55055).
T3 sequence (P55055 whole entry): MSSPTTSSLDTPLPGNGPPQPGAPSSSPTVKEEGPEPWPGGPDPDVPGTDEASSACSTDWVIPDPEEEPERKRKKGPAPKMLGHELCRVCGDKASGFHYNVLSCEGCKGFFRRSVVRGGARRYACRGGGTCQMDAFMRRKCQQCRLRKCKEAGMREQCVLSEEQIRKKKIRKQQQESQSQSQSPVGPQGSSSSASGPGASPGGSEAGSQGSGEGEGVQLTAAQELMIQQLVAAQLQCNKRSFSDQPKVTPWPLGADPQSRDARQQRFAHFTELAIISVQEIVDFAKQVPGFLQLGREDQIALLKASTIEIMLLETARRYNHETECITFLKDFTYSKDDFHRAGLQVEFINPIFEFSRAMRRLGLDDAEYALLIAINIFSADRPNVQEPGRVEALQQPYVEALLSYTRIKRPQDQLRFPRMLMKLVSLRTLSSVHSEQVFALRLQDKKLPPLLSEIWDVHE
The experiment is described as follows: LXR agonists, Gal4 luciferase reporter, dose response, counter-screen for ssDAF-12 agonist project, cell-based, luminescence, HEK293, S. stercoralis campaign (AID 720737). It is filed as functional. To be noted: read-out: IC50 (the source's name).

In experiment [28] the target is T3, Oxysterols receptor LXR-beta. It is filed as functional, cell-based.
The nature of experiment [29]: cells.
A further experiment has as its target Kallikrein-7 (Homo sapiens, UniProt P49862). The experiment is described as follows: Fluorescence Intensity-based biochemical primary high throughput dose response assay to identify activators of kallikrein-7 (K7) zymogen.
The target of experiment [30] is T4, Corticotropin-releasing factor receptor 2/Corticotropin-releasing factor-binding protein (Homo sapiens, UniProt P24387+Q13324).
T4 sequence (Q13324 whole entry): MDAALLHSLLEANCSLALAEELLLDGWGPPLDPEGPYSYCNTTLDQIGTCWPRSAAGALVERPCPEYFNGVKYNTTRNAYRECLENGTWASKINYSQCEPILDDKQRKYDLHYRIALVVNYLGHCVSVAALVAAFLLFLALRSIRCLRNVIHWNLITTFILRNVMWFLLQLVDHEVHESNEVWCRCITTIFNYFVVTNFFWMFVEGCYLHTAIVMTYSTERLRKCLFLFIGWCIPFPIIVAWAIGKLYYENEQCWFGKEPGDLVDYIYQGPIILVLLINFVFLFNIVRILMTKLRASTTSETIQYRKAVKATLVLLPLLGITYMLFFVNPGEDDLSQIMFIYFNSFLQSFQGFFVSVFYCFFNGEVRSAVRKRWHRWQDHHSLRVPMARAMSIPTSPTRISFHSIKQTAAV
T4 sequence (P24387 whole entry): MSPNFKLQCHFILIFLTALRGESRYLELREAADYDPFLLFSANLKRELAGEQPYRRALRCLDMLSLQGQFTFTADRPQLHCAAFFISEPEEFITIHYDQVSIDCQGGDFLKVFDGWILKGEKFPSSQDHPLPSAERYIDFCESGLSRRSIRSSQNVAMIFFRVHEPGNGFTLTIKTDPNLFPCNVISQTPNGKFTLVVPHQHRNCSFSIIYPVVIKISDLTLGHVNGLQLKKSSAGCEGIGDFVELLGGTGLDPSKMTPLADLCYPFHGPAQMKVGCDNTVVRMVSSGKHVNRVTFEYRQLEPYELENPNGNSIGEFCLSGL
The experiment is described as follows: Dose Response confirmation of uHTS hits for small molecule antagonists of the CRF-binding protein and CRF-R2 receptor complex. It is filed as functional. To be noted: read-out: IC50_Mean.

Experiment [31] has as its target T4, Corticotropin-releasing factor receptor 2/Corticotropin-releasing factor-binding protein. The experiment is described as follows: activators of CRF receptor 2 with binding protein – uHTS hits, confirmation (AID 602473). It is filed as functional. To be noted: read-out: EC50_Mean.

The source made the active and inactive calls. Where only a bound is given, the exact number is not on record here.

T2 sequence (P02675 whole entry, the tested form may be a part): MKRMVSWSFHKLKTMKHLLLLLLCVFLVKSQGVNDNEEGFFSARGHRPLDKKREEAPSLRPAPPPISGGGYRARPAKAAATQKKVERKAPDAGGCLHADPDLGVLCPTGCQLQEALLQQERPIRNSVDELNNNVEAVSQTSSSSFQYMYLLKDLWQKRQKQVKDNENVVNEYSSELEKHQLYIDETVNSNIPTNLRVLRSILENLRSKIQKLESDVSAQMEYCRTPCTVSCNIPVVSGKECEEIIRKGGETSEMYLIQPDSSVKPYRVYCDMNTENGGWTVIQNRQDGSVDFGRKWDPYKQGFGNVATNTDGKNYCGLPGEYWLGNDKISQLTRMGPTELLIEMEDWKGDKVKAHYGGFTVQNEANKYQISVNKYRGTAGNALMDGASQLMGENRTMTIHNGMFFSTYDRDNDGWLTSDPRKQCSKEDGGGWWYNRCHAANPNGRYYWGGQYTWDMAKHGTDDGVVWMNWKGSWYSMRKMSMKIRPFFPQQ
Chain of Kallikrein-7 (P49862 whole entry): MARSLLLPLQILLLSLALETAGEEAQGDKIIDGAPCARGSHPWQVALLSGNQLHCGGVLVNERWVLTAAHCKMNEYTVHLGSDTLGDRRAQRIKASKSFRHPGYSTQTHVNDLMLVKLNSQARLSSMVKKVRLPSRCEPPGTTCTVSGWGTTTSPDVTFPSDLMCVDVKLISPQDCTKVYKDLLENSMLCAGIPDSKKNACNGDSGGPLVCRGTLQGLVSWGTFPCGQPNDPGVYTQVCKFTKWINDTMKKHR
Chain of Paired box protein Pax-8 (Q06710 whole entry): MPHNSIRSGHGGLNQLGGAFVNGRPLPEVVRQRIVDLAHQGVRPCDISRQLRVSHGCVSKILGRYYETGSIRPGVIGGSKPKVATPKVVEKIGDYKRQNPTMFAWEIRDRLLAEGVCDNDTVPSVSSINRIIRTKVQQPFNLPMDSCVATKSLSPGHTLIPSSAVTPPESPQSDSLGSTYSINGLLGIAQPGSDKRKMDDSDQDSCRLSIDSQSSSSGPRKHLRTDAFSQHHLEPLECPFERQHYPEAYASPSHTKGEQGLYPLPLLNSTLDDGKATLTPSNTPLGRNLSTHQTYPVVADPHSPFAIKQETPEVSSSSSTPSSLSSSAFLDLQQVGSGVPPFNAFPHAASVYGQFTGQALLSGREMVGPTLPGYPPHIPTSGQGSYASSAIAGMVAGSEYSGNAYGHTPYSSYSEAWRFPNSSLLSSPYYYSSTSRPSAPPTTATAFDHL
Chain of Vasopressin V1b receptor (P47901 whole entry): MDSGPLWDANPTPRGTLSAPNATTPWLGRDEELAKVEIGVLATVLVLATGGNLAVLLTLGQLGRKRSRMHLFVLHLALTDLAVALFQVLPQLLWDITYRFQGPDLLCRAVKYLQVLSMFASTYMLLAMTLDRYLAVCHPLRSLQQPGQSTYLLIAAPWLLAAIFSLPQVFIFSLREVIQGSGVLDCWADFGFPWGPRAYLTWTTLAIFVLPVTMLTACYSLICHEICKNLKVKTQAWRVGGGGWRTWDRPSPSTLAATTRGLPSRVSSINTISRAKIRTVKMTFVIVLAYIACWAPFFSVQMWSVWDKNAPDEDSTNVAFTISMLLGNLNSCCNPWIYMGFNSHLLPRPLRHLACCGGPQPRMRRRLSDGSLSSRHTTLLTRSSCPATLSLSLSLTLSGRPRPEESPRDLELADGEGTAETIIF
Chain of Nonstructural protein 1 (Q194T2 whole entry): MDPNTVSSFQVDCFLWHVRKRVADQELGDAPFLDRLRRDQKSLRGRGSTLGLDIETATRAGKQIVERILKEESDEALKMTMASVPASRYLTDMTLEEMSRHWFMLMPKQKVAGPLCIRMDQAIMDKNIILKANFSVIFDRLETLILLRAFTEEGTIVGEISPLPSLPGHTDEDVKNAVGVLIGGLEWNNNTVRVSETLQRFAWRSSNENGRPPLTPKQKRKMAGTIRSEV
Chain of Vasopressin V2 receptor (P30518 whole entry): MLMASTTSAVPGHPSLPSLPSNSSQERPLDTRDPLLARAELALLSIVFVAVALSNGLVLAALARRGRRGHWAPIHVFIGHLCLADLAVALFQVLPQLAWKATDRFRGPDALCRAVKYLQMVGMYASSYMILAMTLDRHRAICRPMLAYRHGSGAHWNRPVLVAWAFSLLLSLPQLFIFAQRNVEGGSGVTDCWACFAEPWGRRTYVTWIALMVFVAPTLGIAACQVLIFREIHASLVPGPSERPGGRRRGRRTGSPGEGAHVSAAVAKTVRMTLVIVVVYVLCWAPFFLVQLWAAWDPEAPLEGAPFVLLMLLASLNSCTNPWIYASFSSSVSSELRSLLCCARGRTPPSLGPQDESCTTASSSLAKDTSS
Chain of NAD-dependent protein deacylase sirtuin-5, mitochondrial (Q9NXA8 whole entry): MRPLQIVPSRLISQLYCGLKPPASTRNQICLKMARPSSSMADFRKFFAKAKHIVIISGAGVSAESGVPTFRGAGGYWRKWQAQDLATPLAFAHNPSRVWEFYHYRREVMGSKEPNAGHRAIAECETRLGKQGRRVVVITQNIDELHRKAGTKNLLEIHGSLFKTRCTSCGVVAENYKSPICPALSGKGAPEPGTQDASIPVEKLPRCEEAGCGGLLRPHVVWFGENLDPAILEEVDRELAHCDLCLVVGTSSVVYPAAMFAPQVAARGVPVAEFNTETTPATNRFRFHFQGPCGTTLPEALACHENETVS

Take `C=CCN(c1ccccc1)S(=O)(=O)c1cccc(C(=O)Nc2ccncc2)c1`: the AC50 – broadly, the concentration giving half of the maximal activity seen – in experiment [1] is > 30 µM (inactive).

`COc1ccc(NC(=O)Nc2ccc3c(c2)C(=O)N([C@H](C)CO)C[C@H](C)[C@H](CN(C)Cc2ccc(C(F)(F)F)cc2)OCCCC[C@H](C)O3)cc1`: the AC50 in experiment [2] is 24 µM (active); at Paired box protein Pax-8 it was 9.32 µM (active); in experiment [3], 26 µM (active); in experiment [4], 18.4 µM (active); in [5], 22.9 µM (active); in experiment [6], 27.7 µM (active). Further, the AC50 was 22.4 µM (active) in experiment [7], 20.4 µM (active) in experiment [8] and 23.6 µM (active) in experiment [9].

Consider `N#CC(C#N)=c1ccc2c(c1)NC1(CCCCC1)N=2`, for which the EC50 in experiment [10] was 9.91 µM (active); in experiment [11], 1.37 µM (active); in the experiment on H4 it was 5.95 µM (active); in experiment [15], 1.55 µM (active); in experiment [18], 1.23 µM (active); in experiment [19], 6.5 µM (active). In addition, the IC50 is 3.45 µM (active) in experiment [12]; 10.7 µM (active) in “cells [13]”; > 83.3 µM (inactive) at Fibrinogen beta chain [14]; 11.3 µM (inactive) at Fibrinogen beta chain [16]; > 100 µM (inactive) in experiment [17]; 15.6 µM (active) at Nonstructural protein 1. For the same compound, the CC50 (usually the concentration giving 50% cytotoxicity) was 15.4 µM (active) in experiment [20] and 6.67 µM (active) in experiment [21].

For the compound `Cc1cccnc1N1CCN(C(=O)N(CC2CC2)c2ccc(Cl)cc2)CC1`, the IC50 is 0.0084 µM (active) in experiment [22], > 50 µM (inactive) in experiment [23], > 50 µM (inactive) on Vasopressin V2 receptor and > 50 µM (inactive) at Vasopressin V1b receptor.

For the compound `CC1CCN(S(=O)(=O)c2ccc(C(=O)Nc3nnc(-c4cccs4)o3)cc2)CC1`, the AC50 in [24] is 116 µM (active); in experiment [25] it was > 52 µM (inactive).

Turning to `COc1ccc(-c2cc(-c3ccccc3O)[nH]n2)cc1`, in experiment [26], the IC50 was > 67.6 µM (inactive). The EC50 (in [27]; in experiment [28]; in the experiment “cells [29]”) was > 67.6 µM (inactive) throughout.

Regarding `CCCCOC(=O)Oc1ccc2c(=O)c(Oc3cccc(C)c3)coc2c1`, the EC50 is 6.86 µM (active) at Kallikrein-7 and > 53 µM (inactive) in [31]. Besides, the IC50 in experiment [30] was > 47.1 µM (inactive).

The values are drawn from ChEMBL document CHEMBL1201862, “PubChem BioAssay data set” (2004).
